In publication PMC3942886 (Molecular and cellular biochemistry, 2013):

Test system: hexokinase (from baker's yeast purchased from Sigma)
Experiment: pyruvate kinase/lactate dehydrogenase coupled assay, NADH oxidation
Type: biochemical
Details: read-out: Km(glucose); positive control; ATP co-substrate

Work on OC[C@H]1OC(O)[C@H](O)[C@@H](O)[C@@H]1O (stereo partly shown) [glucose] yielded a Km of ~300 µM.
